Results from patent US10525054B2 (dated 2020).
Like-named read-outs stand apart in the source and are kept apart here.

Tests used:
[1] = test system: acetic acid induced writhing in mice; experiment: Acetic acid writhing assay in mice; format: in vivo; details: for Mean Number of writhes: in combination with Diclofenac (3 mg/kg), 30 minutes prior to i.p. 0.5% acetic acid, counted 0-20 minutes
cocaine-trained rats [2] = details: cited from earlier work
cocaine-trained rats [3] = details: doses of up to 3.2 mg/kg/injection; three-day substitution tests and progressive ratio tests; cited from earlier work
squirrel monkeys = details: cited from earlier work

COCCOCCOCCOCCO[C@H]1CC[C@@]2(O)[C@H]3Cc4ccc(OC)c5c4[C@@]2(CCN3C)[C@H]1O5 [α-6-mPEG4-O-hydroxycodone]
Mean Number of writhes ([1]; dose 5 mg/kg oral): 13
Mean Number of writhes ([1]; dose 10 mg/kg oral): 4.8

COCCOCCOCCOCCOCCO[C@H]1CC[C@@]2(O)[C@H]3Cc4ccc(OC)c5c4[C@@]2(CCN3C)[C@H]1O5 [α-6-mPEG5-O-hydroxycodone]
reduction of writhings, combination versus each compound individually (FIG. 2) ([1]; combination with diclofenac (3 mg/kg)): measured reduction of writhings that is greater than the number of writhings when each compound is individually administered
Mean Number of writhes ([1]; dose 5 mg/kg oral): 7.2
Mean Number of writhes ([1]; dose 10 mg/kg oral): 1.4

COCCOCCOCCOCCOCCOCCO[C@H]1CC[C@@]2(O)[C@H]3Cc4ccc(OC)c5c4[C@@]2(CCN3C)[C@H]1O5 [α-6-mPEG6-O-hydroxycodone]
Mean Number of writhes ([1]; dose 5 mg/kg oral): 6.2
Mean Number of writhes ([1]; dose 10 mg/kg oral): 4
reinforcing properties in progressive ratio tests (cocaine-trained rats [2]; behaved like saline): no reinforcing properties
progressive ratio breakpoints compared with saline (cocaine-trained rats [2]; five out of six tested doses): lower than that produced by saline
behavioral evidence of positive reinforcement (cocaine-trained rats [3]): no behavioral evidence of positive reinforcement
injection lever responses (% ILR) (squirrel monkeys; 0.32 mg/kg IV): 22%
injection lever responses (% ILR) (squirrel monkeys; 1.0 mg/kg IV): 39%
injection lever responses (% ILR) (squirrel monkeys; 3.2 mg/kg IV): 50%
exclusive injection lever responding, number of subjects (squirrel monkeys; highest dose tested, 3.2 mg/kg/injection, 3-4 subjects): only two subjects
reinforcing strength (squirrel monkeys; highest doses tested of 3.2 mg/kg/injection): marked reduction in reinforcing strength
potency in self-administration relative to oxycodone and morphine (squirrel monkeys; monkeys): significantly lower potency than oxycodone and morphine

COc1ccc2c3c1O[C@H]1C(=O)CC[C@H]4[C@@H](C2)N(C)CC[C@]314 [hydrocodone]
progressive ratio breakpoint (cocaine-trained rats [2]; 0.18 mg/kg/infusion): 114

CN1CC[C@]23c4c5ccc(O)c4O[C@H]2[C@@H](O)C=C[C@H]3[C@H]1C5 [morphine, reference compound]
injection lever responses (% ILR) (squirrel monkeys; 0.03 mg/kg/injection IV): 100%

COC(=O)[C@H]1[C@@H](OC(=O)c2ccccc2)C[C@@H]2CC[C@H]1N2C [cocaine]
progressive ratio breakpoint (cocaine-trained rats [2]; maintenance dose 0.56 mg/kg/infusion): 128 responses

COc1ccc2c3c1O[C@H]1C(=O)CC[C@@]4(O)[C@@H](C2)N(C)CC[C@]314 [oxycodone]
mean progressive ratio breakpoint (cocaine-trained rats [2]; 0.01 mg/kg/infusion): 56
mean progressive ratio breakpoint (cocaine-trained rats [2]; 0.032 mg/kg/infusion): 79
injection lever responses (% ILR) (squirrel monkeys; 0.1 mg/kg/injection IV): 100%
